Reference: ChEMBL document CHEMBL3638392, “6-1H-imidazo-quinazoline and quinolines derivatives, new MAO inhibitors and imidazoline receptor ligands” (2014)
pIC50: −log10 of the molar value.

Target: T1, Amine oxidase [flavin-containing] A (Homo sapiens, UniProt P21397)
T1 sequence (P21397 whole entry): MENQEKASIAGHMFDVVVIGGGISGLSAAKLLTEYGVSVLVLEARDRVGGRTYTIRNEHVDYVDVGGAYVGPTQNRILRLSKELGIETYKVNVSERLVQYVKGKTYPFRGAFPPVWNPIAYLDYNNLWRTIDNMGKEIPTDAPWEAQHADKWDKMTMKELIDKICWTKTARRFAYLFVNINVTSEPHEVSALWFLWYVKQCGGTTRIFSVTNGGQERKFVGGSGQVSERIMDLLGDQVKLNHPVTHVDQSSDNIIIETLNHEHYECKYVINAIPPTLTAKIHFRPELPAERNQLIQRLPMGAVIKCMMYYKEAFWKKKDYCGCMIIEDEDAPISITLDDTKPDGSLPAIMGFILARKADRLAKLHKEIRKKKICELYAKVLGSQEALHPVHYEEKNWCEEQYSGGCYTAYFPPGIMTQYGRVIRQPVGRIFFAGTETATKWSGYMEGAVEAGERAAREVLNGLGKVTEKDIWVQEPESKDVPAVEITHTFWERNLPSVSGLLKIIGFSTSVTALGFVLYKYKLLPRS
Assay: Activity Assay: Inhibitory activity of compounds was evaluated by a homogeneous luminescent method, the MAO-Glo Assay (Promega), measuring the monoamine oxidase activity (MAOs) from recombinant source (microsomes from baculovirus infected insect cells, Sigma).

CS(=O)(=O)c1ccc(-c2ccc3cc(-n4ccnc4)ccc3n2)cc1
pIC50: 6.35
